According to patent US11434472B2, “Agent for removing undifferentiated iPS cells” (Sumitomo Pharma Co., Ltd., priority 2016, dated 2022):

Experiments:
Type in all cases: cell-based
[1] = tested on: differentiation-inducing cell aggregates formed from human iPS cells; assay: Effect on differentiation-inducing cell aggregates (Cleaved Caspase-3 immunostaining); details: 24 hours, aggregates without treatment 19%
Experimental: Firstly, differentiation-inducing cell aggregates were prepared according to the following procedures.
According to a similar method to that of Test Example 2, the human iPS cells one day before subconfluence were cultured under feeder free conditions using the StemFit medium (AK03; Ajinomoto) in the presence of SB431542 (TGFβ signaling pathway inhibitory compound (TGFβR-i), 5 μmol/L) for 1 day. A 6-well plate (Iwaki, for cell culture, culture area 9.4 cm^2) was used as the plastic culture dish, and the number of plated cells for the human iPS cells dispersed into single cells was set 1.0×10^4. The cells were treated with cell dispersion using TrypLE Select (Life Technologies), and dispersed into single cells by pipetting operation. The cells were then suspended in 100 μl of a serum-free medium at 1.0×10^4 cells per well of a non-cell adhesive 96-well culture plate (PrimeSurface 96V-bottom plate, manufactured by SUMITOMO BAKELITE), and cultured in suspension at 37° C. and 5% CO2. As the serum-free medium (gfCDM+KSR), a serum-free medium which is 1:1 mixture of F-12 medium and IMDM medium supplemented with 10% KSR, 450 μmol/L 1-monothioglycerol, and 1×Chemically defined lipid concentrate was used. At the time of the start of suspension culture (day 0 after the start of suspension culture), Y27632 (final concentration: 20 μmol/L) was added to the medium, and the cells was further cultured using a medium containing Wnt signaling inhibitory compound (IWR-1e, 3 μmol/L).
After culturing at 37° C. and 5% CO2 for 24 hours, the medium was changed to the serum-free medium containing the present compound in a final concentration of 0.1 μmol/L or 1 μmol/L, or DMSO in a concentration equal thereto, and the cells were cultured for additional 24 hours. After 24 hours, the obtained cell aggregates were fixed with 4% paraformaldehyde to prepare frozen sections. […] The immunostained sections were observed by inverted fluorescence microscope (Keyence, BIREVO). In addition, the Cleaved Caspase-3 positive area was calculated using the NIH Image-J software.

human iPS cells = assay: Evaluation of cytotoxic activity against iPS cells (DAPI nuclear staining, DAPI positive area); details: 24 hours
Experimental: Human iPS cells were cultured under feeder-free condition according to the method described in Scientific Reports, 4, 3594 (2014). The StemFit medium (AKO3N, Ajinomoto) was used as feeder-free medium, and Laminin511-E8 (Nippi) was used as feeder-free scaffold.
The subconfluent human iPS cells were washed with PBS and dispersed into single cells using TrypLE Select (Life Technologies). The human iPS cells were then seeded in a plastic culture dish coated with Laminin511-E8, and cultured under feeder-free conditions at 37° C. and 5% CO2 using the StemFit medium in the presence of Y27632 (ROCK inhibitory compound, 10 μmol/L). A 96-well plate (BD, for cell culture, culture area 0.35 cm^2) was used as the plastic culture dish, and the number of plated cells for the human iPS cells dispersed into single cells was set to 0.03×10^4. The medium was changed to Y27632-free StemFit medium 1 day after the seeding. Thereafter, the medium was changed to the Y27632-free StemFit medium once in 1 to 2 days. The cells were then cultured until subconfluent (60% of culture area is covered with the cells). To the human iPS cells was added the Stem Fit medium (AK03; Ajinomoto) to adjust the final concentrations of the compounds of Examples 1-2, 10-2, and 22 dissolved in DMSO to 10, 1, 0.1, and 0.01 μmol/L, and the cells were cultured for 24 hours.
After 24 hours, the medium was removed, the obtained cells were each fixed with 4% paraformaldehyde at 4° C. for 15 minutes, PBS solution containing DAPI (Sigma) was added thereto to perform nuclear staining for the cells, and then the cells were observed by inverted fluorescence microscope (Keyence, BIREVO). In addition, the DAPI positive area was calculated using the quantitative software of the microscope.

HCT-116 cells = assay: Test for inhibiting sphere-forming ability of cancer cells; details: Homo sapiens, 96 h, non-adherent serum-free sphere culture, 4 days, CellTiter-Glo, read-out: IC50 (Sphere IC50 value; concentration for 50% inhibition of cell proliferation)
Experimental: The reliable methods established for measuring the self-renewal ability of cells which is one of the CSC's properties include a method for measuring the sphere-forming ability of cancer cells in non-adherent condition in the absence of serum (Cancer Res 65, 5506-5511 (2005)). HCT-116 cells were available from the American Type Culture Collection (ATCC). HCT-116 cells were cultured at 37° C. and 5% CO2 using the McCoy's 5a medium containing 10% fetal bovine serum (FBS), 100 U/ml penicillin, and 100 μg/ml streptomycin. HCT-116 cells were seeded in a 384 Well Black Clear Bottom Ultra-Low Attachment Microplate (Corning Cat. No. 3827) in an amount of 350-800 cells/well using the DMEM/F12 medium containing 2% B27 supplement (GIBCO), 20 ng/mL epidermal growth factor (EGF) (peprotech), 10 ng/mL basic fibroblast growth factor (bFGF) (peprotech), 5 μg/mL insulin (Sigma), and 1% penicillin/streptomycin. The test compounds were added into each well to adjust the final concentration of DMSO to 0.1%, and the cells were cultured for 4 days. The number of viable cells in each well was then measured with CeilTiter-Glo® Luminescent Cell Viability Assay (Promega) to calculate the concentration of each test compound for 50% inhibition of cell proliferation (Sphere IC50 value; μmol/L).
The experiment of Test Example 1 was performed for the compound of each Example. The concentration of each test compound for 50% inhibition of cell proliferation (Sphere IC50 value; μmol/L) is shown in the following Table.

IC50 (HCT-116 cells) | SMILES | further results
90 nM | COc1ccc(/C=C/C(=O)Nc2cn(Cc3cccc(C(F)(F)F)c3)cn2)cc1OCCO [Example 7] | 
80 nM | N#Cc1ccc(/C=C/C(=O)Nc2cn(Cc3cccc(Cl)c3)cn2)cc1OCCO [Example 8] | 
890 nM | O=C(/C=C/c1cccnc1)Nc1cn(Cc2cccc(Cl)c2)cn1 [Example 9, (2E)-N-(1-(3-Chlorobenzyl)-1H-imidazol-4-yl)-3-(pyridin-3-yl)prop-2-enamide] | 
630 nM | COc1ccc(C(=O)Nc2cn(Cc3cccc(Cl)c3)cn2)cc1OC.Cl [Example 10-2, N-[1-(3-Chlorobenzyl)-1H-imidazol-4-yl]-3,4-dimethoxybenzamide hydrochloride] | ratio of Cleaved Caspase-3 positive area in the cell aggregates ([1]; 1 μmol/L): 26%; ratio of viable cells to that of cells without treatment (human iPS cells; 1 μmol/L): 37%; ratio of viable cells to that of cells without treatment (human iPS cells; 10 μmol/L): 17%
60 nM | COc1ccc(C(=O)Nc2cn(Cc3cc(F)c(F)c(F)c3)cn2)cc1OC [Example 13] | 
629 nM | O=C(Nc1nc(CO)cs1)c1cn(Cc2cc(F)c(F)c(F)c2)cn1 [Example 16] | 
< 10 nM | O=C(COc1ccc(CO)nc1)Nc1cn(Cc2cc(F)c(F)c(F)c2)cn1 [Example 17] | 

More lines, now with the values behind:

SMILES | IC50 (HCT-116 cells) | further results
CC(=O)Nc1ccc(/C=C/C(=O)Nc2cn(Cc3cccc(C(F)(F)F)c3)cn2)cc1.Cl [Example 1-2, (2E)-3-[4-(Acetylamino)phenyl]-N-(1-[3-(trifluoromethyl)benzyl]-1H-imidazol-4-yl)prop-2-enamide hydrochloride] |  | ratio of Cleaved Caspase-3 positive area in the cell aggregates ([1]; 0.1 μmol/L): 24%; ratio of Cleaved Caspase-3 positive area in the cell aggregates ([1]; 1 μmol/L): 27%; ratio of viable cells to that of cells without treatment (human iPS cells; 0.1 μmol/L): 53%; ratio of viable cells to that of cells without treatment (human iPS cells; 1 μmol/L): 25%; ratio of viable cells to that of cells without treatment (human iPS cells; 10 μmol/L): 14%; concentration at which cytotoxic activity against human iPS cells was found (human iPS cells; tested at 10, 1, 0.1 and 0.01 μmol/L): ≥ 100 nM
CC(=O)Nc1ccc(/C=C/C(=O)Nc2cn(Cc3cccc(Cl)c3)cn2)cc1 [Example 2] | 220 nM | 
CC(=O)Nc1ccc(/C=C/C(=O)Nc2cn(Cc3cccc(OC(F)(F)F)c3)cn2)cc1 [Example 3] | 630 nM | 
CC(=O)Nc1ccc(/C=C/C(=O)Nc2cn(Cc3cc(F)c(F)c(F)c3)cn2)cc1 [Example 4] | < 10 nM | 
COc1ccc(/C=C/C(=O)Nc2cn(Cc3cc(F)c(F)c(F)c3)cn2)cc1OCCO [Example 5, (E)-3-(3-(2-Hydroxyethoxy)-4-methoxyphenyl)-N-(1-(3,4,5-trifluorobenzyl)-1H-imidazol-4-yl)acrylamide] | 60 nM | 
COc1ccc(/C=C/C(=O)Nc2cn(Cc3cccc(Cl)c3)cn2)cc1OCCO [Example 6, (2E)-N-[1-(3-Chlorobenzyl)-1H-imidazol-4-yl]-3-[3-(2-hydroxyethoxy)-4-methoxyphenyl]prop-2-enamide] | 60 nM | 
COc1ccc(NC(=O)c2cn(Cc3cc(F)c(F)c(F)c3)cn2)cc1OC [Example 14] | 210 nM | 
O=C(Nc1cn(Cc2cccc(C(F)(F)F)c2)cn1)c1ccc(CO)nc1 [Example 22, 6-(hydroxymethyl)-N-{1-[3-(trifluoromethyl)benzyl]-1H-imidazol-4-yl}nicotinamide] |  | ratio of viable cells to that of cells without treatment (human iPS cells; 0.1 μmol/L): 51%; ratio of viable cells to that of cells without treatment (human iPS cells; 1 μmol/L): 31%
